Data set [1] can be described thus: Neuropharmacological Profile (NPP): general CNS observational screen (depression, righting reflex, ataxia).
Data set [2] is described as follows: NINCDS rotorod ataxia test (minimal neurotoxicity). Type of data set: in vivo, mice. The settings on record: mouse, in vivo, ip; secondary evaluation, at time of peak effect. How it is done: 1. Neurological Activity Tests. The biological testing program is designed to evaluate the following four aspects of drug action: (1) the existence and specificity of anticonvulsant activity; (2) the toxicity, particularly to the central nervous system; and, if the results of (1) and (2) are favorable, (3) the potency and protective index, a comparison between toxic and effective dose and (4) the time course of activity. Compounds were evaluated for anticonvulsant activity in two seizure models, the maximal electroshock seizure (MES) test and the subcutaneous pentylenetetrazol (Metrazol) seizure threshold (scMet) test.
Central nervous system toxicity was evaluated in the rotorod ataxia test. This test is designed to detect minimal neurotoxicity. The animal is placed on a 1-inch diameter knurled plastic rod rotating at 6 rpm. Normal mice can remain indefinitely on a rod rotating at this speed. Neurological deficit is defined as the failure of the animal to remain on the rod for at least 1 minute. This test has a clear end-point, is quantifiable and correlates well with the clinical assessment of minimal toxicity.
Specific anticonvulsant evaluations performed by NINCDS using MES, scMet and Rotorod assays are presented in Tables III & IV for fourteen new compounds as well as several known compounds. Table III centers attention on 2-substituted-3-o-tolyl-4-(3H)-quinazolinones while Table IV includes the findings for various other 2,3-disubstituted-4(3H)-quinazolinones. As described earlier, the MES, scMet and Rotorod tests were performed one-half hour and four hours after administration of each compound. The tables identify the dosage level that elicited a positive result, such as protection against MES and scMet induced seizures, or loss of balance on the rotorod.
In the Secondary Evaluation, median effective doses (ED50) are determined in the MES, scMet and Rotorod assays using the procedures defined in Pharmacology, 95, 99-113 (1949). In addition, each compound's anticonvulsant activity and neurotoxicity over time are determined by measuring the effect of an intraperitoneally administered estimated median effective dose on maximal electroshock seizures and rotorod performance at intervals of 1/2, 1, 2, 3, 4, 6 and 8 hours.
Separate groups of animals are used for each time period. The times of peak toxic and anticonvulsant effect are taken from the resulting graph of percent of animals responding vs. time, and the determinations of median effective doses are performed at those times.
(In general: The rotarod test checks motor coordination on a turning rod.)

[3] abbreviates: at 100 mg/kg, i.p., mice, score 0-8.

Data on one compound can be found in patent publication US4183931A, “2-Ketoalkyl-4(3H)-quinazolinones” (Research Corporation, priority 1977, dated 1980).

By TD50 is commonly meant the 50% point of the dose-response relation for the toxic effect studied. Read a high TD50 as lower toxicity. On to `O=C(Cc1nc2ccccc2c(=O)n1-c1ccccc1Cl)c1ccncc1` [IVd, 2-[2-Oxo-2-(4-pyridyl)ethyl]-3-o-chlorophenyl-4(3H)-quinazolinone], for which the “behavioral activity compared with methaqualone” value in data set [1] (NPP summary) is given as “approaches that of methaqualone”. The compound further had a Depression in data set [1] (at 10 mg/kg, i.p., mice, score 0-8) of 2. Also, in data set [1] (at 30 mg/kg (value in parentheses), i.p., mice, score 0-8), the “CNS Depression” value stood at 2. Further, in data set [1] (setting [3]), the Ataxia is 6, the “CNS Depression” value is 6 and the Righting reflex is recorded as 8. Moreover, the TD50 in data set [2] is 137 mg/kg.
